What was measured:
[1] = target: Transmembrane protein 97 (Cavia porcellus) (UniProt H0V073); experiment: Activity against SIGMA2/GP in the Eurofins Panlabs screen (BI) by Radioactive Assay; conditions: Compound concentration 10.0 uM
[2] = target: Glutamate receptor ionotropic, NMDA 1 (Rattus norvegicus) (UniProt P35439); experiment: Activity against NMDAGLSI/R in the Eurofins Panlabs screen (BI) by Radioactive Assay; conditions: Compound concentration 10.0 uM
[3] = organism: Cavia porcellus; experiment: Activity against SIGMA/NS/GP in the Eurofins Panlabs screen (BI) by Radioactive Assay; conditions: Compound concentration 10.0 uM
[4] = target: Beta-2 adrenergic receptor (Rattus norvegicus) (UniProt P10608); experiment: Activity against BETA2/R in the Eurofins Panlabs screen (BI) by Radioactive Assay; conditions: Compound concentration 10.0 uM
[5] = target: Adenosine receptor A1 (Rattus norvegicus) (UniProt P25099); experiment: Activity against A1/R in the Eurofins Panlabs screen (BI) by Radioactive Assay; conditions: Compound concentration 10.0 uM
Adenosine receptor A1 (Rattus norvegicus), sequence (P25099 whole entry): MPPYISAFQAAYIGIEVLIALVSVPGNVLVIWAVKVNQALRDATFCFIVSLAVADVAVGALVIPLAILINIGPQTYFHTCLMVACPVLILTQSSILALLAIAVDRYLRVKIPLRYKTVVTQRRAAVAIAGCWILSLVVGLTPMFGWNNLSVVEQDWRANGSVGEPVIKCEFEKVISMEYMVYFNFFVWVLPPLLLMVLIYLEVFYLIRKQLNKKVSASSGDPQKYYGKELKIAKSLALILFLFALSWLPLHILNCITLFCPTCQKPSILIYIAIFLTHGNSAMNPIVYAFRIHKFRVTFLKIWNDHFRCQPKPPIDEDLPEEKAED

[6] = target: Galanin receptor type 1 (Rattus norvegicus) (UniProt Q62805); experiment: Activity against GALANIN/R in the Eurofins Panlabs screen (BI) by Radioactive Assay; conditions: Compound concentration 10.0 uM
[7] = target: Tyrosine-protein kinase Lck (Homo sapiens) (UniProt P06239); experiment: Inhibitor of P56TYRKINLCK in the Eurofins Panlabs screen (BI) by FI - fluorescence intensity; conditions: Compound concentration 10.0 uM
[8] = target: Vasoactive intestinal peptide receptor 1 (Cavia porcellus) (UniProt A0A286XMQ0); experiment: Activity against VIP1/GP in the Eurofins Panlabs screen (BI) by Radioactive Assay; conditions: Compound concentration 10.0 uM
[9] = target: Cannabinoid receptor 1 (Homo sapiens) (UniProt P21554); experiment: CB1 Eurofins-Cerep binding assay; conditions: Compound concentration 10.0 uM
[10] = target: G_PROTEIN_RECEP_F1_2 domain-containing protein (Cavia porcellus) (UniProt A0A286XTF2); experiment: Activity against DELTA/GP in the Eurofins Panlabs screen (BI) by Radioactive Assay; conditions: Compound concentration 10.0 uM
[11] = target: Alpha-2A adrenergic receptor (Homo sapiens) (UniProt P08913); experiment: Inhibitor of ALPHA2A/HU in the Eurofins Cerep SafetyScreen44 (BI) by Radioactive Assay (Cerep_13); conditions: Compound concentration 10.0 uM
[12] = target: Muscarinic acetylcholine receptor M3 (Rattus norvegicus) (UniProt P08483); experiment: Activity against M3/R in the Eurofins Panlabs screen (BI) by Radioactive Assay; conditions: Compound concentration 10.0 uM
[13] = target: Neuropeptide Y receptor type 2 (Rattus norvegicus, UniProt Q9ERC0); experiment: Radioligand binding assay (NPY2R, rat hippocampus); format: tissue-based
[14] = target: Mu-type opioid receptor (Homo sapiens) (UniProt P35372); experiment: mu (MOP) Eurofins-Cerep binding assay; parameters: ligand concentration 0.5 nM; conditions: Compound concentration 10.0 uM
[15] = target: Histamine H1 receptor (Homo sapiens) (UniProt P35367); experiment: H1 Eurofins-Cerep binding assay; parameters: ligand concentration 1 nM; conditions: Compound concentration 10.0 uM
[16] = target: Androgen receptor (Homo sapiens) (UniProt P10275); conditions: Compound concentration 10.0 uM
Description: Activity against ANDROGEN/H in the Eurofins Cerep SafetyScreen44 (BI) by Radioactive Assay (Cerep_933)

[17] = target: MAO-A (Homo sapiens, UniProt P21397); experiment: Agonist activity in the Eurofins Cerep SafetyScreen44 (BI) against MAO-A_ANTAG by Scintillation counting (Cerep_443); parameters: scale not given: the % may be the effect or the level left; conditions: rat; compound concentration 10 uM; target entry is the homologue from another species; read-out: % Ctrl
[18] = target: cGMP-inhibited 3',5'-cyclic phosphodiesterase 3A (Homo sapiens) (UniProt Q14432); experiment: Inhibitor of PDE3A in the Eurofins Cerep SafetyScreen44 (BI) by HTRF-homogeneous time resolved fluoresce (Cerep_4072); conditions: Compound concentration 10.0 uM
[19] = target: LTB4 receptor (Cavia porcellus) (UniProt Q9WTK1); experiment: Activity against LTB4GP in the Eurofins Panlabs screen (BI) by Radioactive Assay; conditions: Compound concentration 10.0 uM
[20] = target: ATP-sensitive inward rectifier potassium channel 1 isoform X1 (Mesocricetus auratus) (UniProt A0A1U8CU73); experiment: Activity against K+/KATP/HA in the Eurofins Panlabs screen (BI) by Radioactive Assay; conditions: Compound concentration 10.0 uM
[21] = target: Endothelin-1 receptor (Homo sapiens) (UniProt P25101); experiment: ETA Eurofins-Cerep binding assay; parameters: ligand concentration 0.03 nM; conditions: Compound concentration 10.0 uM
[22] = target: Substance-P receptor (Cavia porcellus) (UniProt P30547); experiment: Activity against NK1/GP in the Eurofins Panlabs screen (BI) by Radioactive Assay; conditions: Compound concentration 10.0 uM
[23] = target: Cysteinyl leukotriene receptor 1 (Cavia porcellus) (UniProt Q2NNR5); experiment: Activity against LTD4/GP in the Eurofins Panlabs screen (BI) by Radioactive Assay; conditions: Compound concentration 10.0 uM
Cysteinyl leukotriene receptor 1 (Cavia porcellus), sequence (Q2NNR5 whole entry): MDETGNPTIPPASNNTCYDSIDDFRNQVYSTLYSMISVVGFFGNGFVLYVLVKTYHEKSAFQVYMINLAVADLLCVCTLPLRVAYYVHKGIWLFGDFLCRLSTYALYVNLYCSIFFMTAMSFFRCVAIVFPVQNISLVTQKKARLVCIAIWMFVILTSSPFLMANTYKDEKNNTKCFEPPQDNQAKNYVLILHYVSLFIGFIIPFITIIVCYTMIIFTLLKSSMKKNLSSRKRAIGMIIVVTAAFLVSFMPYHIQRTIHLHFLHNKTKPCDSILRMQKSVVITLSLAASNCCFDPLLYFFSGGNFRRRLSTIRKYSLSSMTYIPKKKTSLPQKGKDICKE

[24] = target: Prostaglandin G/H synthase 1 (Homo sapiens) (UniProt P23219); experiment: Inhibitor of COX-1 in the Eurofins Cerep SafetyScreen44 (BI) by Fluorimetry (Cerep_4173); conditions: Compound concentration 10.0 uM
[25] = target: Glucocorticoid receptor (Homo sapiens) (UniProt P04150); experiment: GR Eurofins-Cerep binding assay; conditions: Compound concentration 10.0 uM
Glucocorticoid receptor (Homo sapiens), sequence (P04150 whole entry): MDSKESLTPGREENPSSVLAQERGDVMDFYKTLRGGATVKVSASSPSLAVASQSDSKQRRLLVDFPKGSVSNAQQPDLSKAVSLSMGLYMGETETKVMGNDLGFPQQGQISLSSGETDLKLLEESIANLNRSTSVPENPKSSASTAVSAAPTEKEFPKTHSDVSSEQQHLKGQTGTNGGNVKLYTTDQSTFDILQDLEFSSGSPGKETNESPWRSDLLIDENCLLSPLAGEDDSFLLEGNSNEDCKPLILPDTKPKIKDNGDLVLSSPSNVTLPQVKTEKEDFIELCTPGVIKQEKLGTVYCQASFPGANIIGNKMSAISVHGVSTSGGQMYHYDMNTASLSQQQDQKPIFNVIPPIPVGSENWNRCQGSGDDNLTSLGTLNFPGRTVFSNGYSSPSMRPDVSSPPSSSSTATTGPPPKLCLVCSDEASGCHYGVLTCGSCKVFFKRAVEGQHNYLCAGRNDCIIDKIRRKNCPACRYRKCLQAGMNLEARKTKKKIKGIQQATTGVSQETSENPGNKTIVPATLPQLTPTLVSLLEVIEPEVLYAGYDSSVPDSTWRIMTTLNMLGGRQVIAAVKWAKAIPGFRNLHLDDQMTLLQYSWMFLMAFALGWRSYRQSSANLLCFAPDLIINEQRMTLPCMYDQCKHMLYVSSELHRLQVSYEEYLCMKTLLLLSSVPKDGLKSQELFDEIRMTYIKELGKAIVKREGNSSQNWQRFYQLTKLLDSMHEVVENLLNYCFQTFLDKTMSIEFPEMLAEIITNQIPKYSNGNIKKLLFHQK

[26] = target: Vasopressin V1a receptor (Rattus norvegicus) (UniProt P30560); experiment: Activity against V1/RA in the Eurofins Panlabs screen (BI) by Radioactive Assay; conditions: Compound concentration 10.0 uM
[27] = target: 5-hydroxytryptamine receptor 1A (Rattus norvegicus) (UniProt P19327); experiment: Activity against 5HT1A/R in the Eurofins Panlabs screen (BI) by Radioactive Assay; conditions: Compound concentration 10.0 uM
[28] = target: 5-hydroxytryptamine receptor 2A (Homo sapiens) (UniProt P28223); experiment: Agonist activity in the Eurofins Cerep SafetyScreen44 (BI) against 5HT2AH_AGON by Scintillation counting (Cerep_471); conditions: Compound concentration 10.0 uM
[29] = target: 3',5'-cyclic-AMP phosphodiesterase 4D (Homo sapiens) (UniProt Q08499); experiment: Inhibitor of PDE4D2 in the Eurofins Cerep SafetyScreen44 (BI) by Scintillation counting (Cerep_4077); conditions: Compound concentration 10.0 uM
[30] = target: Alpha-1B adrenergic receptor (Homo sapiens) (UniProt P35368); experiment: Activity against ALPHA1B/R in the Eurofins Panlabs screen (BI) by Radioactive Assay; conditions: Rattus norvegicus; Compound concentration 10.0 uM
Alpha-1B adrenergic receptor (Homo sapiens), sequence (P35368 whole entry): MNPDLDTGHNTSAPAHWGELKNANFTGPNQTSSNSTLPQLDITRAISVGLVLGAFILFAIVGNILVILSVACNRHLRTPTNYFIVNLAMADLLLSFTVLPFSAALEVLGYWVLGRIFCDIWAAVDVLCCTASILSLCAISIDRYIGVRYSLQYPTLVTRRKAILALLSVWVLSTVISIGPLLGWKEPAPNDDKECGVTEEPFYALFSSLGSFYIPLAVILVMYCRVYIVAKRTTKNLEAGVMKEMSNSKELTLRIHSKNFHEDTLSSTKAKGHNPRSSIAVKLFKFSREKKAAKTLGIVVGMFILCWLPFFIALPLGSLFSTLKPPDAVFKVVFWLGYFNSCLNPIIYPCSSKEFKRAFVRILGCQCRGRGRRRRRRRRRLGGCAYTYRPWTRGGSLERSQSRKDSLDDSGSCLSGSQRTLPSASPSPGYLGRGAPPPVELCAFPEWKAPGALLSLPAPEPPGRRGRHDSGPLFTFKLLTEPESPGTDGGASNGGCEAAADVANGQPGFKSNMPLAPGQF

[31] = target: L-type calcium channel (dihydropyridine site), Cav1.2 alpha-1C (Rattus norvegicus, UniProt P22002); experiment: Activity against CA+/DHPSI/RA in the Eurofins Panlabs screen (BI) by Radioactive Assay; conditions: compound concentration 10 uM, read-out: % Ctrl
L-type calcium channel (dihydropyridine site), Cav1.2 alpha-1C, sequence (P22002 whole entry): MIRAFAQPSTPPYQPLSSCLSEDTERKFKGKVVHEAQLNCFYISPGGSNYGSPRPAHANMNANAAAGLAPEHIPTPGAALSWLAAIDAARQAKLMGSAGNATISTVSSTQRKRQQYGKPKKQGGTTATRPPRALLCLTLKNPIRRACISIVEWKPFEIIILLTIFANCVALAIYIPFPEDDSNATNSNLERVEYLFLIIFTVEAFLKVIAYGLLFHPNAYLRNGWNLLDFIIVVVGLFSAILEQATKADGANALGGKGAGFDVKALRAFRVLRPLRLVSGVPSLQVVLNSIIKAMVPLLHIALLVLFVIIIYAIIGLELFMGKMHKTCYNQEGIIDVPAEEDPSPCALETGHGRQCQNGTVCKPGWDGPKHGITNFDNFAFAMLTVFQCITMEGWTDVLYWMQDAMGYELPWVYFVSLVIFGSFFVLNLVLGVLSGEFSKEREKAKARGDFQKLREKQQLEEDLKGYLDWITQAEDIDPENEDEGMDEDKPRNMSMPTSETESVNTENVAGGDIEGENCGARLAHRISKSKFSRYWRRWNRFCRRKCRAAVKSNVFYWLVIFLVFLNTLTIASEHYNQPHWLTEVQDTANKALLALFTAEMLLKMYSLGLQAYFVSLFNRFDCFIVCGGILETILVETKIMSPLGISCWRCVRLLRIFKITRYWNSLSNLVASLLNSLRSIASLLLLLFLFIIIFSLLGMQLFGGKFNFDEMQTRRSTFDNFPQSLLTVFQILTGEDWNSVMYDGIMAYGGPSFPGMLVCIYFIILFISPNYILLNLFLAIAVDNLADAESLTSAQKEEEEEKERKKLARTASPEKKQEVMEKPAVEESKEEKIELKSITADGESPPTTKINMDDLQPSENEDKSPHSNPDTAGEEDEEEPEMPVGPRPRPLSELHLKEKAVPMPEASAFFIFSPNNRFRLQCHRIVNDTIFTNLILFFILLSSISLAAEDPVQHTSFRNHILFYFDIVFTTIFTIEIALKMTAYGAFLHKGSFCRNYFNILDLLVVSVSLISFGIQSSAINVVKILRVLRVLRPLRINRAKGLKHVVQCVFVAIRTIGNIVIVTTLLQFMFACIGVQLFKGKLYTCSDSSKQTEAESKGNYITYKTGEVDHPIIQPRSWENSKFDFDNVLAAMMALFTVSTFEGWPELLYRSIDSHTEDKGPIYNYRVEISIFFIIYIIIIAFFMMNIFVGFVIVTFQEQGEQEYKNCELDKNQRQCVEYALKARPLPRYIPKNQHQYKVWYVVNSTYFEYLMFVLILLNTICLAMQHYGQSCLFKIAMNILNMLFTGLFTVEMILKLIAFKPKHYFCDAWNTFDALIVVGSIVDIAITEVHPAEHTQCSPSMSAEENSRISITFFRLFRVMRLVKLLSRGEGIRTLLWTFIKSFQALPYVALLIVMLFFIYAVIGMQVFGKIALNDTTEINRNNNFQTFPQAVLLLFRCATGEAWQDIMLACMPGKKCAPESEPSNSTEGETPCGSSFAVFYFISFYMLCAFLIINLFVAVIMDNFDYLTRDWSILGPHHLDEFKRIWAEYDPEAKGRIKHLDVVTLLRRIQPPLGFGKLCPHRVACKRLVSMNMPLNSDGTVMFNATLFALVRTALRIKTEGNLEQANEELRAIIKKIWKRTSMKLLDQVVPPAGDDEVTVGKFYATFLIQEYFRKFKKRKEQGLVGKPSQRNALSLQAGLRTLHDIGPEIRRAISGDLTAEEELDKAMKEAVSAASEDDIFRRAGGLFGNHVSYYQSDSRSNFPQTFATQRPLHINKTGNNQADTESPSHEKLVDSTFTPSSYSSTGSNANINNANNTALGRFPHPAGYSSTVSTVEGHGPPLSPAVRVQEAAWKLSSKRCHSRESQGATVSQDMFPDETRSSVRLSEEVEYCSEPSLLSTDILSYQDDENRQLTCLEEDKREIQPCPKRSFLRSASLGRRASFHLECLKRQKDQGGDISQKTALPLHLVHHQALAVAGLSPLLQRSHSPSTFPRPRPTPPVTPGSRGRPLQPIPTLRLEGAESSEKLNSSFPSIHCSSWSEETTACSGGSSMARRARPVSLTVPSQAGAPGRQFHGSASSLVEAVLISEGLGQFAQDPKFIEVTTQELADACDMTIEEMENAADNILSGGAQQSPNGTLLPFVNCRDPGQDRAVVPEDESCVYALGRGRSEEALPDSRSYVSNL

[32] = organism: Oryctolagus cuniculus; experiment: Activity against 5HT3/RB in the Eurofins Panlabs screen (BI) by Radioactive Assay; conditions: Compound concentration 10.0 uM
[33] = target: Glucocorticoid receptor (Homo sapiens) (UniProt P04150); experiment: Activity against GCORTIC/H in the Eurofins Panlabs screen (BI) by Radioactive Assay; conditions: Compound concentration 10.0 uM
[34] = target: Muscarinic acetylcholine receptor (Oryctolagus cuniculus) (UniProt A0A5F9DUN4); experiment: Activity against M4/RB in the Eurofins Panlabs screen (BI) by Radioactive Assay; conditions: Compound concentration 10.0 uM
[35] = target: Muscarinic acetylcholine receptor M2 (Homo sapiens) (UniProt P08172); experiment: M2 Eurofins-Cerep binding assay; parameters: ligand concentration 2 nM; conditions: Compound concentration 10.0 uM
[36] = target: D(2) dopamine receptor (Homo sapiens) (UniProt P14416); experiment: Activity against D2HSPIP in the Eurofins Panlabs screen (BI); conditions: Compound concentration 10.0 uM
D(2) dopamine receptor (Homo sapiens), sequence (P14416 whole entry): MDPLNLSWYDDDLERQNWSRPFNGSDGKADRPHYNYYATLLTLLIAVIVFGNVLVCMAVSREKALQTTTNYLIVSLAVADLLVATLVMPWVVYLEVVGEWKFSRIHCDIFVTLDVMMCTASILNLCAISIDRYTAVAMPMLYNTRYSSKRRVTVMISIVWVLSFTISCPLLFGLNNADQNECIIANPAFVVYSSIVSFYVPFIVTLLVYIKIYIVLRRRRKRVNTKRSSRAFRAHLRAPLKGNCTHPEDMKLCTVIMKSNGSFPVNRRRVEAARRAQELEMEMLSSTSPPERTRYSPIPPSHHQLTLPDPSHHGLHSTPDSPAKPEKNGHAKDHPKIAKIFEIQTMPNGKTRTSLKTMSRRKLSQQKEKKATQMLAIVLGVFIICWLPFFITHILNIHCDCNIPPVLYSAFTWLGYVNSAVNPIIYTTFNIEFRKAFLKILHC

[37] = target: D(1A) dopamine receptor (Homo sapiens) (UniProt P21728); experiment: D1 Eurofins-Cerep binding assay; parameters: ligand concentration 0.3 nM; conditions: Compound concentration 10.0 uM
[38] = target: Beta-2 adrenergic receptor (Homo sapiens) (UniProt P07550); experiment: beta 2 Eurofins-Cerep binding assay; conditions: Compound concentration 10.0 uM
Beta-2 adrenergic receptor (Homo sapiens), sequence (P07550 whole entry, looked up): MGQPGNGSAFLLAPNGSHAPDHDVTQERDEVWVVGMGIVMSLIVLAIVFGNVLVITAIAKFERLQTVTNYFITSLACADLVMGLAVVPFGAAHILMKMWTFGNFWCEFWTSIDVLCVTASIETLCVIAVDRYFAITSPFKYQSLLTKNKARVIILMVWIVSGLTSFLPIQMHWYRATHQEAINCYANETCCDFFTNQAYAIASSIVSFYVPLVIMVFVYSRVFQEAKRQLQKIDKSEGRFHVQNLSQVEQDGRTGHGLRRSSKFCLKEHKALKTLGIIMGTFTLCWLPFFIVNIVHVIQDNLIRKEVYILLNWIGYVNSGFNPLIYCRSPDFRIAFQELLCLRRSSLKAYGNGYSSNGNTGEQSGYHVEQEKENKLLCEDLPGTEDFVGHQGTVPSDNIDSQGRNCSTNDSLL

[39] = target: Estrogen receptor (Bos taurus) (UniProt P49884); experiment: Activity against ESTROGEN/BO in the Eurofins Panlabs screen (BI) by Radioactive Assay; conditions: Compound concentration 10.0 uM
[40] = target: Alpha-1A adrenergic receptor (Homo sapiens) (UniProt P35348); experiment: Activity against ALPHA1A/R in the Eurofins Panlabs screen (BI) by Others; conditions: Rattus norvegicus; Compound concentration 10.0 uM

## N=C(N)NCCC[C@@H](NC(=O)C(c1ccccc1)c1ccccc1)C(=O)NCc1ccc(CNC(N)=O)cc1
[1]
  residual activity: 109%
[2]
  residual activity: 87%
[3]
  residual activity: 100%
[4]
  residual activity: 77%
[5]
  residual activity: 99%
[6]
  residual activity: 91%
[7]
  residual activity: 97%
[8]
  residual activity: 88%
[9]
  residual activity: 107%
[10]
  residual activity: 80%
[11]
  residual activity: 93%
[12]
  residual activity: 85%
[13]
  IC50: > 10 µM (not active)
[14]
  residual activity: 71%
[15]
  residual activity: 75%
[16]
  residual activity: 91%
[17]
  activity at 10 µM: 97% (not active)
[18]
  residual activity: 84%
[19]
  residual activity: 86%
[20]
  residual activity: 76%
[21]
  residual activity: 112%
[22]
  residual activity: 106%
[23]
  residual activity: 109%
[24]
  residual activity: 81%
[25]
  residual activity: 98%
[26]
  residual activity: 98%
[27]
  residual activity: 81%
[28]
  residual activity: 60%
[29]
  residual activity: 91%
[30]
  residual activity: 114%
[31]
  activity at 10 µM: 82% (not active)
[32]
  residual activity: 99%
[33]
  residual activity: 86%
[34]
  residual activity: 110%
[35]
  residual activity: 90%
[36]
  residual activity: 97%
[37]
  residual activity: 97%
[38]
  residual activity: 108%
[39]
  residual activity: 85%
[40]
  residual activity: 98%

From ChEMBL document CHEMBL5463723, “Data for DCP probe BIBO3304” (2023)
